Measurements from patent publication US20230027985A1, “SUBSTITUTED HYDANTOINAMIDES AS ADAMTS7 ANTAGONISTS” (Bayer Aktiengesellschaft, priority 2019, published 2023).

What was measured:
[1] = target: T1, Purified recombinant ADAMTS-7 (rat prodomain/human catalytic domain, SEQ ID No. 01 or 02) (Homo sapiens, UniProt Q9UKP4); assay: Assay for ADAMTS-7 enzymatic activity (FRET substrate cleavage); format: biochemical; conditions: FRET substrate SEQ ID No. 11, 120 min at 32° C.; read-out: ADAMTS7-IC50
T1 construct: rat ADAMTS-7 signal peptide + prodomain (rat 1-217, Q1EHB3) (N); 2xStrep tag (C); 6xHis tag (C); made in house; host or cells: Expi293 cells
T1 sequence (Q9UKP4 237-537): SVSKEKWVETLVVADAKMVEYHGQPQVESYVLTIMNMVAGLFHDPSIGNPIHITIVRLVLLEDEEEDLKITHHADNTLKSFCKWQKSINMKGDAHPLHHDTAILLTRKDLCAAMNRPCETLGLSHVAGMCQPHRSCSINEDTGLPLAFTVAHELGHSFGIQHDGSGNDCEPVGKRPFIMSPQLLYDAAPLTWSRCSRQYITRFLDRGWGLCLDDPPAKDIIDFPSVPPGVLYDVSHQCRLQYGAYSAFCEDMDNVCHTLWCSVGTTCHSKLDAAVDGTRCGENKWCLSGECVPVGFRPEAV
Procedure: Purified recombinant ADAMTS-7 (as of SEQ ID No. 01 or SEQ ID No. 02) was diluted in reaction buffer (20 mM HEPES pH 8.0, 150 mM NaCl, 5 mM CaCl2, 0.004% Brij, 10 μM ZnCl2) fora concentration of approximately 20 nM. 25 μl of the solution were transferred into each well of a 384-well white microtiter plate (Greiner Bio-One 781075) and 1 μl test compound solution (modulator/inhibitor dissolved in DMSO, at the corresponding concentration) or pure DMSO as a control were added per well. […] Amino acids […] are derived from Thrombospondin-1 sequence (275-289). An additional carboxyl glutamic acid was added after the QXL520 quencher to increase substrate solubility. The microtiter plate was incubated for 120 min at the temperature of 32° C. The increase of fluorescence intensity was measured in appropriate fluorescence plate reader (e.g. TECAN Ultra) using excitation wavelength of 485 nm and emission wavelength of 520 nm. IC50 values were calculated from percentage of inhibition of ADAMTS-7 activity as a function of test compound concentration.

ADAMTS4 = target: T2, ADAMTS4 (Homo sapiens, UniProt O75173); assay: Selectivity assay for ADAMTS-7 modulators (FRET), ADAMTS4; format: biochemical; conditions: 50 nM enzyme (R&D 4307-AD), 1 μM Dabcyl/Edans FRET substrate, 120 min at 32° C.
T2 construct: purchased R&D 4307-AD
T2 sequence (O75173 213-685 limits assumed): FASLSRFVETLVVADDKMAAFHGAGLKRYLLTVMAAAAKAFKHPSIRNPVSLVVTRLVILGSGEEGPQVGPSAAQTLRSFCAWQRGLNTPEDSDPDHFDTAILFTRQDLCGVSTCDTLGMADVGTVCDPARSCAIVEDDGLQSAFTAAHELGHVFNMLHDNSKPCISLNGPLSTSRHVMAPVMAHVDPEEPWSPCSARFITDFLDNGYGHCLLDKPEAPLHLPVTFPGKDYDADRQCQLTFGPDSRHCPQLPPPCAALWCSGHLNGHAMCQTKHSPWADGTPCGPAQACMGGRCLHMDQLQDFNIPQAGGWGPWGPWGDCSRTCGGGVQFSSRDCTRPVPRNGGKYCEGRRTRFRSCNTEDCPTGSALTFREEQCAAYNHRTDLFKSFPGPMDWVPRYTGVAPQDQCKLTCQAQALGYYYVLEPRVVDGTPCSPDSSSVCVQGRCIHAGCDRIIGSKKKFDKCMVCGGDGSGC
Procedure: The respective enzyme (see table 2 below) was diluted in reaction buffer (50 mM Tris, 2.5 μM ZnCl2, 0.05% BSA, 0.001% Brij, pH 7.5 for ADAM17; 50 mM Tris 7.5, 150 mM NaCl, 10 mM CaCl2, 0.05% Brij for all other enzymes) to the respective concentration and 25 μl were transferred into each well of a 384-well white microtiter plate (Greiner Bio One 781075). 1 μl test compound solution (dissolved in DMSO, at the corresponding concentration) or pure DMSO as a control was added per well. The enzymatic reaction was initiated by addition of 25 μl of the respective concentration of the respective FRET substrate (see table 2 below) in reaction buffer. The microtiter plate was incubated for 120 min at the temperature of 32° C. The increase of fluorescence intensity was measured in appropriate fluorescence plate reader (e.g. TECAN Ultra) using the respective wavelengths for excitation and emission. IC50 values were calculated from percentage of inhibition of enzyme activity as a function of test compound concentration.

Structure (SMILES)	IC50 [1]	IC50 (ADAMTS4)
O=C1NC(=O)C(CNC(=O)c2cnn(-c3ccccc3)n2)(CC2CC2)N1 (racemic) [Example 54, rac-N-[(4-(cyclopropylmethyl)-2,5-dioxoimidazolidin-4-yl)methyl}]-2-phenyl-2H-1,2,3-triazole-4-carboxamide]	670 nM	25000 nM
CCCC1(CNC(=O)c2cnn(-c3ccccc3)n2)NC(=O)NC1=O (racemic) [Example 55, rac-N-[(2,5-dioxo-4-propylimidazolidin-4-yl)methyl]-2-phenyl-2H-1,2,3-triazole-4-carboxamide]	240 nM	19000 nM
CC(C)(C)C1(CNC(=O)c2cnn(-c3ccccc3)c2)NC(=O)NC1=O (racemic) [Example 58, rac-N-[4-tert-butyl-2,5-dioxoimidazolidin-4-yl)methyl]-1-phenyl-1H-pyrazole-4-carboxamide]	550 nM	5600 nM
O=C1NC(=O)C(CNC(=O)c2cnn(-c3ccccc3)n2)(C2CCOCC2)N1 (racemic) [Example 61, rac-N-[(4-(oxan-4-yl)-2,5-dioxoimidazolidin-4-yl)methyl]-2-phenyl-2H-1,2,3-triazole-4-carboxamide]	128 nM	9950 nM
CC(C)C1(CNC(=O)c2cnn(-c3ccc(F)cc3)n2)NC(=O)NC1=O (racemic) [Example 62, rac-N-[(2,5-dioxo-4-(propan-2-yl)imidazolidin-4-yl)methyl]-2-(4-fluorophenyl)-2H-1,2,3-triazole-4-carboxamide]	42 nM	16000 nM
CC(C)(C)C1(CNC(=O)c2cnn(-c3ccc(F)cc3)n2)NC(=O)NC1=O (racemic) [Example 63, rac-N-[(4-tert-butyl-2,5-dioxoimidazolidin-4-yl)methyl]-2-(4-fluorophenyl)-2H-1,2,3-triazole-4-carboxamide]	69 nM	6000 nM
CCCC1(CNC(=O)c2cnn(-c3ccc(F)cc3)n2)NC(=O)NC1=O (racemic) [Example 65, rac-N-[(2,5-dioxo-4-propylimidazolidin-4-yl)methyl]-2-(4-fluorophenyl)-2H-1,2,3-triazole-4-carboxamide]	170 nM	19000 nM
O=C1NC(=O)C(CNC(=O)c2cnn(-c3ccc(F)cc3)n2)(C2CCOCC2)N1 (racemic) [Example 67, rac-2-(4-fluorophenyl)-N-[4-(oxan-4-yl)-2,5-dioxoimidazolidin-4-yl)methyl]-2H-1,2,3-triazole-4-carboxamide]	260 nM	9300 nM
CCCCC1(CNC(=O)c2cnn(-c3ccc(F)cc3)n2)NC(=O)NC1=O (racemic) [Example 68, rac-N-[(4-butyl-2,5-dioxoimidazolidin-4-yl)methyl]-2-(4-fluorophenyl)-2H-1,2,3-triazole-4-carboxamide]	120 nM	8300 nM
O=C1NC(=O)C(CNC(=O)c2cnn(-c3ccc(F)cc3)n2)(C2CCC2)N1 (racemic) [Example 69, rac-N-[(4-cyclobutyl-2,5-dioxoimidazolidin-4-yl)methyl]-2-(4-fluorophenyl)-2H-1,2,3-triazole-4-carboxamide]	98 nM	35000 nM
CC(C)C1(CNC(=O)c2cnn(-c3ccc(F)cc3F)n2)NC(=O)NC1=O (racemic) [Example 87, rac-2-(2,4-difluorophenyl)-N-[(4-isopropyl-2,5-dioxoimidazolidin-4-yl)methyl]-2H-1,2,3-triazole-4-carboxamide]	98 nM	20000 nM
CC(C)C1(CNC(=O)c2cnn(-c3cc(F)c(F)c(F)c3)n2)NC(=O)NC1=O (racemic) [Example 99, rac-N-[(4-isopropyl-2,5-dioxoimidazolidin-4-yl)methyl]-2-(3,4,5-trifluorophenyl)-2H-1,2,3-triazole-4-carboxamide]	52 nM	6000 nM
Cc1scnc1C1(CNC(=O)c2cnn(-c3ccc(F)cc3)n2)NC(=O)NC1=O (racemic) [Example 100, rac-2-(4-fluorophenyl)-N-{[4-(5-methyl-1,3-thiazol-4-yl)-2,5-dioxoimidazolidin-4-yl]methyl}-2H-1,2,3-triazole-4-carboxamide]	8 nM	680 nM
O=C1NC(=O)C(CNC(=O)c2cnn(-c3cccc(F)c3)n2)(c2nccs2)N1 (racemic) [Example 108, rac-N-{[2,5-dioxo-4-(1,3-thiazol-2-yl)imidazolidin-4-yl]methyl}-2-(3-fluorophenyl)-2H-1,2,3-triazole-4-carboxamide]	12 nM	600 nM
O=C1NC(=O)C(CNC(=O)c2cnn(-c3ccc(Cl)c(F)c3)n2)(c2nccs2)N1 (racemic) [Example 109, rac-2-(4-chloro-3-fluorophenyl)-N-{[2,5-dioxo-4-(1,3-thiazol-2-yl)imidazolidin-4-yl]methyl}-2H-1,2,3-triazole-4-carboxamide]	19 nM	1100 nM
O=C1NC(=O)C(CNC(=O)c2cnn(-c3ccc(F)c(Cl)c3)n2)(c2nccs2)N1 (racemic) [Example 111, rac-2-(3-chloro-4-fluorophenyl)-N-{[2,5-dioxo-4-(1,3-thiazol-2-yl)imidazolidin-4-yl]methyl}-2H-1,2,3-triazole-4-carboxamide]	35 nM	1200 nM
O=C1NC(=O)C(CNC(=O)c2cnn(-c3ccc(F)cc3)n2)(c2nccs2)N1 (racemic) [Example 113, rac-N-{[2,5-dioxo-4-(1,3-thiazol-2-yl)imidazolidin-4-yl]methyl}-2-(4-fluorophenyl)-2H-1,2,3-triazole-4-carboxamide]	39 nM	2400 nM
O=C1NC(=O)C(CNC(=O)c2cnn(-c3ccc(F)cc3F)n2)(c2nccs2)N1 (racemic) [Example 115, rac-2-(2,4-difluorophenyl)-N-{[2,5-dioxo-4-(1,3-thiazol-2-yl)imidazolidin-4-yl]methyl}-2H-1,2,3-triazole-4-carboxamide]	87 nM	6600 nM
CC(C)C1(CNC(=O)c2cnn(-c3cccc(F)c3)n2)NC(=O)NC1=O (racemic) [Example 118, rac-2-(3-fluorophenyl)-N-[(4-isopropyl-2,5-dioxoimidazolidin-4-yl)methyl]-2H-1,2,3-triazole-4-carboxamide]	46 nM	4500 nM
CC(C)C1(CNC(=O)c2cnn(-c3cccc(C#N)c3)n2)NC(=O)NC1=O (racemic) [Example 120, rac-2-(3-cyanophenyl)-N-[(4-isopropyl-2,5-dioxoimidazolidin-4-yl)methyl]-2H-1,2,3-triazole-4-carboxamide]	170 nM	6000 nM
CC(C)C1(CNC(=O)c2cnn(-c3ccc(F)c(F)c3)n2)NC(=O)NC1=O (racemic) [Example 122, rac-2-(3,4-difluorophenyl)-N-[(4-isopropyl-2,5-dioxoimidazolidin-4-yl)methyl]-2H-1,2,3-triazole-4-carboxamide]	11 nM	2500 nM
CC(C)C1(CNC(=O)c2cnn(-c3ccc(Cl)c(F)c3)n2)NC(=O)NC1=O (racemic) [Example 124, rac-2-(4-chloro-3-fluorophenyl)-N-[(4-isopropyl-2,5-dioxoimidazolidin-4-yl)methyl]-2H-1,2,3-triazole-4-carboxamide]	13 nM	2800 nM
